Legend:
[1] = system: Experimental Allergic Encephalomyelitis (EAE) in Dark Agouti (DA) Rats; experiment: EAE induced by MBP 63-81 in DA rats: clinical signs score; format: in vivo
Method: Female Dark Agouti (DA) Rats, 8-9 weeks of age, about 110-145 g of weight were used as test animals.
For induction of Experimental Allergic Encephalomyelitis (EAE), rats were injected intradermally at the base of the tail with a total volume of 200 μl of inoculum containing 50 μg of MBP 63-81 (ANASPEC), in saline mixed (1:1) with Complete Freund Adjuvant, (IFA, Sigma), and 1 mg killed M. tuberculosis strain (strain H37 RA; Difco Laboratories, Detroit, Mich.). Beginning 24 hours after EAE induction the rats were followed up daily. On day 9 after the after EAE induction more than 50% of the rats developed signs of paralysis. The animals with multiple sclerosis signs were separated into 10 groups for beginning of treatment. Prior to treatment, blood was collected from 2 rats from each group. At day 9 and 11 after EAE induction, 90% of rats developed signs of EAE.
9-11 days after EAE induction the animals were divided into 9 groups (5-6 rats in each). Each group of rats was treated subcutaneously once daily with different claimed oligopeptide or theirs combinations (equimolar mix) (150 μg) or doses of positive control item (Glatiramer acetate, Copaxone, Teva) or negative control item (0.9% Sodium chloride solution), during 6 days as follows:
Copaxone, claimed oligopeptide and combinations thereof (Mechanical mix) were diluted with 0.9% Sodium chloride to a concentration of 450 μg/ml. Volume of 0.33 ml (150 μg/rat/day) was injected SC during 6 days.
After 6 days of the injections cycle the animals were maintained and followed up till day 28th post EAE induction. Clinical signs score was performed daily during study periods. Animals were observed individually during all study periods. In cases of extended observation period clinical signs were recorded once daily. Observations included changes in the fur, eyes, respiratory rate, vocalization, paralysis, activity and behavior pattern. Score of paralysis signs related to MS of each animal was done daily (during all study periods).
Score gradation was as follows: 0—Normal; 1—Tail weakness; 2—Hind leg weakness or paralysis; 3—Hind leg paralysis, dragging hind limbs; 4—Complete paralysis, unable to move; 5—Death.

ESAMBPCAA [2] = experiment: Inhibition of ESAMBPCAA mediated MBP hydrolysis by synthetic oligopeptides of MBP fragment 43-68; format: biochemical, human; conditions: antibodies 30 nM, MBP 4 mkM, 16 h at 37° C.; FIG. 3
Method: (§1) MBP hydrolysis by anti MBP auto antibodies was assayed as follows: Purified antibodies (0.1-1 μg) were incubated at 37° C. for 14 h in the final volume of 12.5 μl PBS, 0.02% NaN3 containing 1-2 μg of MBP. The samples were mixed with Laemmli's buffer. The extent of MBP degradation was visualized by SDS-PAGE in Tris-glycine and Tricine buffer systems. For quantitative MBP degradation assay, MBP (10 μM) was incubated at 37° C. with antibodies (60 nM) in 0.1 ml of PBS, 0.02% NaN3 for 12 h. The reaction was stopped by adding 10% TFA up to pH 2.5. The samples were further chromatographed on column C4 4.0/150 (Waters). The amount of non-cleaved MBP was calculated by absorbance monitoring at 280 nm.
The oligopeptides were assayed for their potency to inhibit ESAMBPCAA mediated MBP hydrolysis using ESAMBPCAA collected from progressive MS Patient as specified in Example 1. Different concentrations of test peptides were mixed with both antibodies (30 nM) and MBP (4 mkM) in TBS with_0.1% NaN3_and 10 mM CaCl2. The samples were incubated for 16 h at 37° C. and analyzed on 15% SDS_PAGE. The gels were stained by Coomassie and analyzed by densitometry with TOTALLAB 2.01 software (Nonlinear Dynamics, Ltd., Newcastle upon Tyne, U.K.). […] Shortening of oligopeptide lengths to less than 6 amino acids lead to complete lack of ESAMBPCAA inhibitory activity.

[3] = system: Experimental MS (Theiler's Virus Infection) in SJL mice; experiment: Experimental MS (Theiler's Virus Infection): disease manifestation and MDS score; format: in vivo; conditions: 20 μg of each oligopeptide daily subcutaneous, days 14-24
Method: (§2) The BeAn strain of TMEV used in this study was generated and propagated in BHK-21 cells grown in Dulbecco's modified Eagle's medium supplemented with 7.5% donor calf serum. For i.c. infection, 30 μl of virus solution (0.2×10^6 to 6×10^6 PFU) was injected into the right cerebral hemisphere of 6- to 8-week-old SJL mice (8 animals per group) anesthetized with isoflurane. Clinical symptoms (MDS score) of disease were assessed weekly on the following grading scale: grade 0, no clinical signs; grade 1, mild waddling gait or flaccid tail; grade 2, severe waddling gait; grade 3, moderate hind limb paresis; and grade 4, severe hind limb paralysis. Serum samples collected from animals were quantified for ESAMBPCAA mediated MBP hydrolysis as specified in Example 1
(§3) At day 14 following infection mice were divided into 6 groups ([…]) and treated during 10 days (days 14-24) according following schedule: […]

[4] = system: Experimental Allergic Encephalomyelitis (EAE) in DA rats; experiment: MDS score in EAE DA rats; format: in vivo; conditions: intranasal, days 8-12; FIG. 4; dose-dependent for SEQ ID NO: 2
ESAMBPCAA [5] = experiment: ESAMBPCAA mediated MBP hydrolysis in serum of treated EAE DA rats; format: in vivo; conditions: days 8-12; for rates of MBP-specific auto antibody mediated hydrolysis: median for 6 animals
ESAMBPCAA [6] = experiment: ESAMBPCAA mediated MBP hydrolysis in serum of treated TMEV-infected SJL mice; format: in vivo; conditions: 20 μg of each oligopeptide daily subcutaneous, days 14-24
Method: as §1, §2, §3

ESAMBPCAA [7] = experiment: ESAMBPCAA mediated MBP hydrolysis in serum samples of progressive MS patients in presence of test substances; format: biochemical, human; conditions: for MBP-specific auto antibody mediated hydrolysis: test substance 100 nM
Method: as §1
Serum samples collected from 5 patients suffering from progressive MS were quantified for ESAMBPCAA mediated MBP hydrolysis as specified in Example 1 in presence of following substances: […]

GGDRGAPKRGSGKDSHH [SEQ ID NO: 2] was tested, and the “suppression of EAE clinical signs” value ([1]; 150 μg/rat/day SC during 6 days) was “most efficiently suppressed”, the “Clinical signs score on day 23 after induction (mean)” value ([1]; 150 μg/rat/day SC during 6 days from day 9-11 after EAE induction, score 0-5) was 0.5 and the “inhibition of ESAMBPCAA activity (ESAMBPCAA mediated MBP hydrolysis)” value (ESAMBPCAA [2]) was “most potent inhibitory activity”. For the same sequence, the “disease-preventive (prophylactic) activity” value [3] was “disease-preventive (prophylactic) activity”, the “% Animals affected with disease at day 100” value ([3]; 30 mice per group) was 19(30) % and the “suppression of MDS score” value ([3]; FIG. 5) was “most efficiently suppressed”. For the same sequence, the “suppression of MDS score” value [4] was “most efficiently suppressed”, the “rates of MBP-specific auto antibody mediated hydrolysis” value (shortened to “rates”) (ESAMBPCAA [5]; Day 8 (start of treatment), 50 μg daily intranasal) was 43.1 ± 6.4 pmol/min/nmol and the “rates” value (ESAMBPCAA [5]; Day 8 (start of treatment), 120 μg daily intranasal) was 42.8 ± 5.5 pmol/min/nmol. For the same sequence, the “rates” value (ESAMBPCAA [5]; Day 16, 50 μg daily intranasal) was 35.6 ± 4.9 pmol/min/nmol, the “rates” value (ESAMBPCAA [5]; Day 16, 120 μg daily intranasal) was 17.3 ± 5.4 pmol/min/nmol and the “rates” value (ESAMBPCAA [5]; Day 24, 50 μg daily intranasal) was 46.3 ± 2.9 pmol/min/nmol. The “rates” value (ESAMBPCAA [5]; Day 24, 120 μg daily intranasal) was 15.1 ± 3.9 pmol/min/nmol, the “suppression of MBP-specific auto antibody mediated hydrolysis” value (ESAMBPCAA [5]; intranasal, dose-dependent for SEQ ID NO: 2) was “most efficiently suppressed” and the “ESAMBPCAA activity at day 100” value (ESAMBPCAA [6]) was 11.4 ± 3.5 pmol/min/nmol. The “suppression of MBP-specific auto antibody mediated hydrolysis” value (ESAMBPCAA [6]) was “most efficiently suppressed”, the “suppressive effect on MBP-specific auto antibody mediated hydrolysis” value (ESAMBPCAA [7]; 100 nM, summary of Table 3) was “potent suppressive effect” and the “MBP-specific auto antibody mediated hydrolysis” value (ESAMBPCAA [7]; Patient 1) was 11.2 ± 3.5 pmol/min/nmol. For the same sequence, the “MBP-specific auto antibody mediated hydrolysis” value (ESAMBPCAA [7]; Patient 2) was 17.3 ± 4.1 pmol/min/nmol, the “MBP-specific auto antibody mediated hydrolysis” value (ESAMBPCAA [7]; Patient 3) was 14.4 ± 2.2 pmol/min/nmol and the “MBP-specific auto antibody mediated hydrolysis” value (ESAMBPCAA [7]; Patient 4) was 14.5 ± 4.4 pmol/min/nmol. For the same sequence, the “MBP-specific auto antibody mediated hydrolysis” value (ESAMBPCAA [7]; Patient 5) was 16.9 ± 7.3 pmol/min/nmol.
